Results reported in patent publication US20230270753A1, “COMBINATIONS OF GABAA ALPHA 5 AGONISTS AND SV2A INHIBITORS AND METHODS OF USING IN THE TREATMENT OF COGNITIVE IMPAIRMENT” (AGENEBIO, INC., priority 2020, published 2023).
Where two headings read alike, the source gives them in different places.

Tests used:
Type in all cases: in vivo, rat
aged-impaired rats [1] = experiment: Water maze, acute and chronic Compound 1 (Example 7); conditions: Compound 1 10 mg/kg IP
Text: Rats were trained and tested in a novel water maze environment to assess the effect of the treatments. The water maze used here was housed in a different room and was surrounded by curtains with a novel set of patterns relative to the maze used for initial assessment of cognitive status. The training and testing protocol used was identical to the spatial learning-activated protocol described in Haberman et al., (2008, Proceedings of the National Academy of Sciences USA, 105, 10601-10606). The task required rats to swim to a […] escape platform at a fixed location in the presence of spatial cues for 8 training trials with an inter-trial interval of 8 min. An hour after the last training trial, rats were given a probe test in the absence of the escape platform (free swim) to assess the memory of the platform location as measured by time spent searching at the target location.
To assess the acute and chronic effects of Compound 1 treatment, rats received 15-16 days of drug injections with assessment on the water maze on the first day (acute effect) and last day (chronic effect) of treatment. Different surrounding spatial cues and escape location in the water maze were used for the initial and subsequent assessments. Compound 1 was given at 10 mg/kg using intraperitoneal injection (IP) at a volume of 1 ml/kg. […]

aged-impaired rats [2] = experiment: Radial arm maze, 5-hr delay, acute Compound 1 via PO (Example 7); conditions: Compound 1 10 mg/kg PO 30-40 min before information trial
Text: All rats were screened in a standardized assessment of spatial cognition before the commencement of drug studies. The background assessment used a well-established Morris water maze protocol as described in detail elsewhere (Gallagher et al, 1993). Briefly, the rats were trained for 8 days (three trials per day) to locate a camouflaged escape platform that remained at the same location throughout training in a water maze. Every sixth trial consisted of a probe trial (free swim with no escape platform) that served to assess the development of a spatially localized search for the escape platform. During these probe trials, a learning index was generated from the proximity of the rat to the escape platform and was used to define impairment in the aged rats. The learning index is the sum of weighted proximity scores obtained during probe trials, with low scores reflecting a search near the escape platform and high scores reflecting searches farther away from the platform (Gallagher et al, 1993). Cue training (visible escape platform) occurred on the last day of training to test for sensorimotor and motivational factors independent of spatial learning. Aged rats with impaired spatial memory performance (i.e., those with learning index scores outside the young ‘normative’ range) but successful cued training performance were used for the studies as described below. […]

aged-impaired rats [3] = test system: aged-impaired rats

For `COCc1nnc2n1Cc1c(C#Cc3cnc(OC)s3)ncn1-c1ccc(Cl)cc1-2` [Compound 1], the “time spent in the target quadrant of the Morris Water Maze” value (aged-impaired rats [1]; acute (first day of treatment)) was “spent more time in the target quadrant”, the “time spent in the target quadrant of the Morris Water Maze” value (aged-impaired rats [1]; chronic (last day of 15-16 days of injections)) was “spent more time in the target quadrant” and the “number of errors in the radial arm maze vs vehicle” value (aged-impaired rats [2]) was “fewer errors”. For the same compound, the “efficacy of Compound 1 on its own in the radial arm maze” value (aged-impaired rats [3]; Compound 1 2.5 mg/kg IP alone) was “subtherapeutic” and the “efficacy of Compound 1 on its own in the radial arm maze” value (aged-impaired rats [3]; Compound 1 5 mg/kg IP alone) was “subtherapeutic”.
